Test results from patent US9346798B2, “Dihydrobenzoxazine and tetrahydroquinoxaline sodium channel inhibitors” (AMGEN INC., priority 2012, dated 2016).

How the values were obtained:
Type in all cases: cell-based
[1] = target: T1, Nav 1.7 (Homo sapiens (Human), UniProt Q15858); assay: Nav 1.7 in vitro assay, IonWorks Quattro (IWQ) population patch-clamp; conditions: HEK 293 cells stably transfected with Nav 1.7; 26th pulse to -20 mV
[2] = target: T1, Nav 1.7; assay: Nav 1.7 in vitro PX assay, PatchXpress whole cell voltage clamp; conditions: HEK 293 cells stably transfected with human Nav1.7; for IC50: partially inactivated state (20 to 50% inactivation); for inhibition at 4.9 µM: HEK293, values marked *, read-out: Nav 1.7 PX percent inhibition at 4.9 μM
How it was run: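 HEK293 cells stably expressing human Nav1.7, whole-cell voltage clamp at a holding potential giving 20–50% inactivation; currents elicited by 20 msec pulses to −10 mV at 0.1 Hz.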

[3] = target: Nav 1.5 (Homo sapiens (Human), UniProt Q14524); assay: Nav 1.5 in vitro assay, IonWorks Quattro (IWQ) population patch-clamp; conditions: HEK 293 cells stably transfected with Nav 1.5; 26th pulse to -20 mV
Chain of Nav 1.5 (Q14524 whole entry): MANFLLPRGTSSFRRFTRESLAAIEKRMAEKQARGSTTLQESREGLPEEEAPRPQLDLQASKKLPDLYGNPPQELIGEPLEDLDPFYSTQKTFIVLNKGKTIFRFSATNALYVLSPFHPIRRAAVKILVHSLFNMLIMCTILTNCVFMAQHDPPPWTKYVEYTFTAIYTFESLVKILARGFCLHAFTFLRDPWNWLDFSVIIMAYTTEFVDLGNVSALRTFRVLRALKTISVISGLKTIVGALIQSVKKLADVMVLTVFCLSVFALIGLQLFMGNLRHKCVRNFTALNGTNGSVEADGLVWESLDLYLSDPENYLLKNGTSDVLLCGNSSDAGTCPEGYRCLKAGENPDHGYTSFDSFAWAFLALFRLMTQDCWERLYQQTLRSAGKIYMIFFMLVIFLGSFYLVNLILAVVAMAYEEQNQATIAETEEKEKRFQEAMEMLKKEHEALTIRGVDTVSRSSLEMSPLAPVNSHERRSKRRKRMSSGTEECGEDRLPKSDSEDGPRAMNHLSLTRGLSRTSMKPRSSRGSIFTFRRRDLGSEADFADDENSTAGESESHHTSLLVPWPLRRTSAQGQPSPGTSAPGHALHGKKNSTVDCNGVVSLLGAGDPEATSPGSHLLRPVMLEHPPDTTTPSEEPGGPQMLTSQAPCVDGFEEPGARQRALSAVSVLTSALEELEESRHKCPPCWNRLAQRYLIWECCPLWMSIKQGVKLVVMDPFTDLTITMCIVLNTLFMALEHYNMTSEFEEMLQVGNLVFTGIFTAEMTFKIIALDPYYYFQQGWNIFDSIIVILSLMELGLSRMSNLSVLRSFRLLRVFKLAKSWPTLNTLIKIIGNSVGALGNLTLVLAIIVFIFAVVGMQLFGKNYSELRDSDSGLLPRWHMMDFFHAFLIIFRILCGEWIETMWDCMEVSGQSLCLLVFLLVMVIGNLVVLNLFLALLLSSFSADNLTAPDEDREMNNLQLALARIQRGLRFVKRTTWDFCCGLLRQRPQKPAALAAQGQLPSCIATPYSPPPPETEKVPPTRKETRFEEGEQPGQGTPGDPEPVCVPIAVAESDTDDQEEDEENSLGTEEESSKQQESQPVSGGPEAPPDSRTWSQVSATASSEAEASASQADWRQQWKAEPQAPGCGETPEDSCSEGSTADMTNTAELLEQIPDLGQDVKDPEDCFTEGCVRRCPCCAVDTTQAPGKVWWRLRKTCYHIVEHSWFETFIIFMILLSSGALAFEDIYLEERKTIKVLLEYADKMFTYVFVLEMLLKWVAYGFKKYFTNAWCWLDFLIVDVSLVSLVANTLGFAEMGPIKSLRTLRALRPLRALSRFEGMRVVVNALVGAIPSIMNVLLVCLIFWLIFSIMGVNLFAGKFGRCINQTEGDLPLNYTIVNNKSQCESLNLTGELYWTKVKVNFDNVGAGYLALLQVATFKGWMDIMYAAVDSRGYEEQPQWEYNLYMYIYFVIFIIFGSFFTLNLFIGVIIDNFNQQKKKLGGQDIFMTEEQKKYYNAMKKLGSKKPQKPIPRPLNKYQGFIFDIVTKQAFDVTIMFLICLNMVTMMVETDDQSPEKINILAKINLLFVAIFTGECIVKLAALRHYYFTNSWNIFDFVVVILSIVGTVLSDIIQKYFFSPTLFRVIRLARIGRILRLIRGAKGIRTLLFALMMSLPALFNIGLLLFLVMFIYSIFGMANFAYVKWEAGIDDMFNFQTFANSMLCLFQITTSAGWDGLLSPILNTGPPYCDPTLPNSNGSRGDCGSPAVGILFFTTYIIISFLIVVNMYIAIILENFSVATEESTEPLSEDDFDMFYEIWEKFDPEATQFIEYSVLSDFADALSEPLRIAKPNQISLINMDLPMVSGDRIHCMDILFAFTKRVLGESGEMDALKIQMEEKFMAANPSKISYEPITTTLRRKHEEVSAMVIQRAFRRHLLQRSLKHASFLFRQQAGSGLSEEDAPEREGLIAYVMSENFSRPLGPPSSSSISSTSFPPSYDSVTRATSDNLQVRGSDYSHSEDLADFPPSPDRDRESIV

T1 sequence (Q15858 whole entry): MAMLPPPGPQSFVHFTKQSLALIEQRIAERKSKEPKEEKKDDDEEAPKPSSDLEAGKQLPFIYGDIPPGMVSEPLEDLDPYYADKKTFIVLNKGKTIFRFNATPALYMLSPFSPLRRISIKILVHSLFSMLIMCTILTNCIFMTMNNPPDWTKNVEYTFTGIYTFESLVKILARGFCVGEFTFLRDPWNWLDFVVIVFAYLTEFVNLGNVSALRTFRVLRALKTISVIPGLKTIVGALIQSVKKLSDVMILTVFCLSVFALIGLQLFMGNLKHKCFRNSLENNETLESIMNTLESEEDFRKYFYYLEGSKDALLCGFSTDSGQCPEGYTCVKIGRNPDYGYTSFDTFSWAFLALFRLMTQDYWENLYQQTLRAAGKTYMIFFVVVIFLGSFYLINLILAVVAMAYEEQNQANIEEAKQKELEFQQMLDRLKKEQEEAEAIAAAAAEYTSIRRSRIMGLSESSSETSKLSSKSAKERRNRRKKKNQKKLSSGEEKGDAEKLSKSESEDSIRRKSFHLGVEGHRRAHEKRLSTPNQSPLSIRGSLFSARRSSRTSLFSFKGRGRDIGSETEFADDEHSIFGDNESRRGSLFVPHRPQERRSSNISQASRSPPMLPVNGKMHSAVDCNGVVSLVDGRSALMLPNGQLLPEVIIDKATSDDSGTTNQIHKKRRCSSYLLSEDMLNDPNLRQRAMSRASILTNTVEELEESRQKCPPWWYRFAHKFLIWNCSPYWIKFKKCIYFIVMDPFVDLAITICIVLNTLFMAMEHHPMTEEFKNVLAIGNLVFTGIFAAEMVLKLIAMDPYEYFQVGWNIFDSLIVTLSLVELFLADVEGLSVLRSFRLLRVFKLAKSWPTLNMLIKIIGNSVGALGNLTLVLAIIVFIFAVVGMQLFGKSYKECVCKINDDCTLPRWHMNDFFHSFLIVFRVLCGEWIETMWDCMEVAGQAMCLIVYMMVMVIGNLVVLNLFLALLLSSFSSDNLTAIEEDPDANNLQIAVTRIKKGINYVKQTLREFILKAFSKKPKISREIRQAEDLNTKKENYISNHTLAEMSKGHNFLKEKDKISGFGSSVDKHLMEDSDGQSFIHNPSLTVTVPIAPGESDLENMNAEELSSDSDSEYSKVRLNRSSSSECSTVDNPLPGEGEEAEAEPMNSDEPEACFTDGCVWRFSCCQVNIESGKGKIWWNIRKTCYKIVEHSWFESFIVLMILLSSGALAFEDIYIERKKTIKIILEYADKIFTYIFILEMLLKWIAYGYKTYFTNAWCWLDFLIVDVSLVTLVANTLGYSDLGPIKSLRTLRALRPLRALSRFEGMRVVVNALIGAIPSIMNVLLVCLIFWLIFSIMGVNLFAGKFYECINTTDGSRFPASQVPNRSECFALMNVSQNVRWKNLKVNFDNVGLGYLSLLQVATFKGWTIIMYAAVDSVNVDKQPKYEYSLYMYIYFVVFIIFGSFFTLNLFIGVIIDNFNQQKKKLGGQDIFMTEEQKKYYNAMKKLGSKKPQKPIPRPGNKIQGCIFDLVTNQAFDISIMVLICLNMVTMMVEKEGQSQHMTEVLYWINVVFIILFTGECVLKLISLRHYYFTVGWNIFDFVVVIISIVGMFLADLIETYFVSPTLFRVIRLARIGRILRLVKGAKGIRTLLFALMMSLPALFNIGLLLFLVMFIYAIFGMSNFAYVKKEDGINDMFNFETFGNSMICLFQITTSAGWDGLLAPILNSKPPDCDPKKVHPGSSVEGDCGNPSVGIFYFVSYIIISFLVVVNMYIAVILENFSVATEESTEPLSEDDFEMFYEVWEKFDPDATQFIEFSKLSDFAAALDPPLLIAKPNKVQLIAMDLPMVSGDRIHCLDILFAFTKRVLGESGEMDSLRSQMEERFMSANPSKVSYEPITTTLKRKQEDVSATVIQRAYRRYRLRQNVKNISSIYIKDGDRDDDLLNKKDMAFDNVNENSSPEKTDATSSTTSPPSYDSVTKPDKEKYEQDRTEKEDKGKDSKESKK

Compound	inhibition at 4.9 µM [2] [%]	IC50 [1] [nM]	IC50 [2] [nM]	IC50 [3] [µM]
N#Cc1cc(C(F)(F)F)ccc1N1CCOc2c1ccc(S(=O)(=O)Nc1nccs1)c2F [Example 216, 4-(2-Cyano-4-(Trifluoromethyl)Phenyl)-8-Fluoro-N-(Thiazol-2-Yl)-3,4-Dihydro-2H-Benzo[B][1,4]Oxazine-7-Sulfonamide]		34	516	5.73
COc1cc(C#N)ccc1N1CCOc2cc(S(=O)(=O)Nc3nccs3)c(F)cc21 [Example 217, 4-(4-Cyano-2-Methoxyphenyl)-6-Fluoro-N-(Thiazol-2-Yl)-3,4-Dihydro-2H-Benzo[B][1,4]Oxazine-7-Sulfonamide]		8	207	1.31
N#Cc1cc(C(F)(F)F)ccc1N1CCOc2cc(S(=O)(=O)Nc3nccs3)cc(F)c21 [Example 218, 4-(2-Cyano-4-(Trifluoromethyl)Phenyl)-5-Fluoro-N-(Thiazol-2-Yl)-3,4-Dihydro-2H-Benzo[B][1,4]Oxazine-7-Sulfonamide]		193	1990	0.385
O=S(=O)(Nc1nccs1)c1ccc2c(c1)OCCN2Cc1ccccc1 [Example 220, 4-Benzyl-N-(Thiazol-2-Yl)-3,4-Dihydro-2H-Benzo[B][1,4]Oxazine-7-Sulfonamide]		864	17200	> 10
Cc1onc(-c2ccccc2)c1CN1CCOc2cc(S(=O)(=O)Nc3nccs3)ccc21 [Example 221, 4-((5-Methyl-3-Phenylisoxazol-4-Yl)Methyl)-N-(Thiazol-2-Yl)-3,4-Dihydro-2H-Benzo[B][1,4]Oxazine-7-Sulfonamide]		564	3030	> 10
Cc1cc(C#N)ccc1N1CCOc2cc(S(=O)(=O)Nc3nccs3)ccc21 [Example 226, 4-(4-Cyano-2-Methylphenyl)-N-(Thiazol-2-Yl)-3,4-Dihydro-2H-Benzo[B][1,4]Oxazine-7-Sulfonamide]		36.5	740	> 10

The next lines start with results.

inhibition at 4.9 µM [2] [%]	Compound	IC50 [1] [nM]	IC50 [2] [nM]	IC50 [3] [µM]
26.2	COc1cc(C#N)ccc1CN1CCOc2cc(S(=O)(=O)Nc3nccs3)ccc21 [Example 219, 4-(4-Cyano-2-Methoxybenzyl)-N-(Thiazol-2-Yl)-3,4-Dihydro-2H-Benzo[B][1,4]Oxazine-7-Sulfonamide]	5190		> 10
33.8	O=S(=O)(Nc1nccs1)c1ccc2c(c1)OCCN2Cc1c[nH]c2cccnc12 [Example 222, 4-((1H-Pyrrolo[3,2-B]Pyridin-3-Yl)Methyl)-N-(Thiazol-2-Yl)-3,4-Dihydro-2H-Benzo[B][1,4]Oxazine-7-Sulfonamide]	3430		> 10
